For the test, the target named is human isoprenylcysteine carboxyl methyltransferase (hIcmt) (Homo sapiens, UniProt O60725). As to the kind of experiment: vapor diffusion assay. The conditions noted are these: VDA. The format is biochemical.

The values that follow come from PMC3401633 (Bioorganic & medicinal chemistry letters, 2011).

human isoprenylcysteine carboxyl methyltransferase (hIcmt), sequence (O60725 whole entry, the tested form may be a part): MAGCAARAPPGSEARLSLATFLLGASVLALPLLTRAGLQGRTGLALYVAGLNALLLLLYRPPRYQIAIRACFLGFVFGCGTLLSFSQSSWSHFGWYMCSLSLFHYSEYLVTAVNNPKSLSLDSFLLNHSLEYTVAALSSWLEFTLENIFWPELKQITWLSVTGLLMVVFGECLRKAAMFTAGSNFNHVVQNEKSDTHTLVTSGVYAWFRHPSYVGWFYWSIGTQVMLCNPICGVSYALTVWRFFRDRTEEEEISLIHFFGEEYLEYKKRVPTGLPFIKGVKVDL

As for `CC(C)=CCC/C(C)=C/CC/C(C)=C/CSC[C@H](NS(=O)(=O)c1c(C)c(C)c(C)c(C)c1C)C(=O)O` [Compound 6a], the “hIcmt inhibition in words” value is recorded as “poor hIcmt inhibitors”.
Consider `COC(=O)[C@H](CSC/C=C(\C)CC/C=C(\C)CCC=C(C)C)NS(=O)(=O)c1cccs1` [Compound 10], for which the “hIcmt inhibition in words” value is given as “remarkably poor hIcmt inhibitor”.
